Laboratory results as given in publication PMC4212957, “The serodominant secreted effector protein of Salmonella, SseB, is a strong CD4 antigen containing an immunodominant epitope presented by diverse HLA class II alleles” (Immunology, 2014).

Test system: draining lymph node cells of HLA-DR4 transgenic mice
Assay: Murine IFN-γ ELISpot, HLA-DR4 transgenic mice primed with SseB
Conditions: mouse, in vivo
Source text: Mice transgenic for HLA-DR1 (that is, HLA-DRA1*0101/HLA-DRB1*0101) and HLA-DR4 (that is, HLA-DRA1*0101/HLA-DRB1*0401)[24]–[26] were bred and housed in the Centre for Biological Services at the Hammersmith campus, Imperial College London, UK, in accordance with Home Office regulations and College ethics review. Both transgenic lines are maintained on a C57BL/6 background as homozygotes for knockout of murine MHC Class II H2-Aβ.[27]
HLA-DR1 or HLA-DR4 transgenic mice were primed, by subcutaneous injection into the footpad, with 25 μg of recombinant SseB protein administered as a 1 : 1 emulsion with TiterMax® Gold (CytRx Corporation, Los Angeles, CA). Ten days after priming, popliteal draining lymph nodes were harvested and stimulated, in triplicate, at 2 × 10^5 cells per well with 25 μg of SseB peptide or recombinant protein in pre-coated murine IFN-γ ELISpot plates (2BScientific, Upper Heyford, Oxfordshire, UK). Culture medium was RPMI-1640 containing 2 mM L-glutamine, 50 U/ml penicillin G, 50 μg/ml streptomycin sulphate, 50 μM β-mercaptoethanol and 10% fetal calf serum. Cells were cultured at 37° and in 5% CO2 for 72 hr before assay development using a biotinylated anti-IFN-γ antibody, a horseradish peroxidase detection antibody and TMB substrate (2BScientific). Developed plates were left to dry before spot counting using an AID ELISpot reader (Autoimmun Diagnostika GMBH). Positive epitopes for a given transgenic line were defined as those where more than half of assayed animals gave a greater number of spot-forming cells than 2 SD over the mean of the no protein/peptide control.
Fig 1 Definition of HLA-DR specific T-cell epitopes in DR1 and DR4 transgenic mice. (a) HLA-DR1 (n = 5) and (b) HLA-DR4 (n = 6) mice were footpad primed with ssEB protein in combination with TiterMax® Gold adjuvant. Draining lymph node (DLN) cells were assayed by ELISpot at day 10 for interferon-γ (IFN-γ) T-cell responses to ssEB peptides and protein. A peptide was defined as containing a T-cell epitope for DR1 or DR4 HLA molecules if more than half of the mice assayed gave a greater number of spot-forming cells than 2 SD over the mean of the no peptide/protein control. The 2 SD value for each transgenic line is shown by a dotted line.

Substance	IFN-γ ELISpot recall response / CD4 epitope in HLA-DR4 transgenic mice
11: SseB overlapping library peptide, residues 101–120 (EDVIKYMRDNGILIDGMTID) [Peptide 11]	CD4 epitopes detected
AVLTQLTGLISKWGEISSMIAQKTYS [Peptide 18, SseB overlapping library peptide, residues 171–196]	not DR4
